System: COX-1
Experiment: Assay for COX-1 activity in vitro (PGE2 formed, ELISA)
Assay type: biochemical, human or murine
Details: recombinant COX-1 from SF9 insect cells, arachidonic acid 10 μM, pH 8.0, 10-20 min pre-incubation
Procedure: The COX-2 inhibition activity of the compounds of this invention illustrated in the Examples was determined by the following methods.
a. Preparation of recombinant COX baculoviruses
Recombinant baculoviruses were isolated by transfecting 4 μg of baculovirus transfer vector DNA into SF9 insect cells (2×10^8) along with 200 ng of linearized baculovirus plasmid DNA by the calcium phosphate method. See M. D. Summers and G. E. Smith, A Manual of Methods for Baculovirus Vectors and Insect Cell Culture Procedures, Texas Agric. Exp. Station Bull. […] Recombinant viruses were purified by three rounds of plaque purification and high titer (10^7-10^8 pfu/mL) stocks of virus were prepared. For large scale production, SF9 insect cells were infected in 10 liter fermentors (0.5×10^6 /mL) with the recombinant baculovirus stock such that the multiplicity of infection was 0.1. […] The homogenate was centrifuged at 10,000×G for 30 minutes, and the resultant supernatant was stored at -80° C. before being assayed for COX activity.
COX activity was assayed as PGE2 formed/pg protein/time using an ELISA to detect the prostaglandin released. CHAPS-solubilized insect cell membranes containing the appropriate COX enzyme were incubated in a potassium phosphate buffer (50 mM, pH 8.0) containing epinephrine, phenol, and heme with the addition of arachidonic acid (10 μM). […] The PGE2 formed was measured by standard ELISA technology (Cayman Chemical).
For `Cc1ccc(-c2ccc(S(C)(=O)=O)cc2)n1-c1ccc(F)cc1` [Example 1, 1-(4-Fluorophenyl)-2-methyl-5-[4-(methylsulfonyl)phenyl]-1H-pyrrole], the IC50 was over 100 µM. With `Cc1c(S(=O)(=O)C(F)(F)F)cc(-c2ccc(S(C)(=O)=O)cc2)n1-c1ccc(F)cc1` [Example 16, 1-(4-Fluorophenyl)-2-methyl-5-[4-(methylsulfonyl)phenyl]-3-[(trifluoromethyl)sulfonyl]-1H-pyrrole] the IC50 was over 100 µM. In the case of `CS(=O)(=O)c1ccc(-c2cccn2-c2ccc(F)cc2)cc1` [Example 10, 1-(4-Fluorophenyl)-2-[4-(methylsulfonyl)phenyl]-1H-pyrrole], the IC50 is reported as over 100 µM. Molecule `NS(=O)(=O)c1ccc(-n2cccc2-c2ccc(F)cc2)cc1` [Example 9, 4-[2-(4-Fluorophenyl)-1H-pyrrol-1-yl]benzenesulfonamide] has an IC50 of 10.4 µM. Work on `Cc1c(COc2cccc(Cl)c2)cc(-c2ccc(S(C)(=O)=O)cc2)n1-c1ccc(F)cc1` [Example 25, 3-[(3-Chlorophenoxy)methyl]-1-(4-fluorophenyl)-2-methyl-5-[4-(methylsulfonyl)phenyl]-1H-pyrrole] yielded an IC50 of over 100 µM. Molecule `Cc1ccc(-c2ccc(S(C)(=O)=O)cc2)n1C1CCCCC1` [Example 7, 1-Cyclohexyl-2-methyl-5-[4-(methylsulfonyl)phenyl]-1H-pyrrole] has an IC50 of 62.4 µM. In the case of `Cc1c(COc2ccc(Cl)cc2)cc(-c2ccc(S(C)(=O)=O)cc2)n1-c1ccc(F)cc1` [Example 26, 3-[(4-Chlorophenoxy)methyl]-1-(4-fluorophenyl)-2-methyl-5-[4-(methylsulfonyl)phenyl]-1H-pyrrole], the IC50 is reported as over 100 µM.

System: not listed separately
Experiment: Analgesia (Table I)
Assay type: in vivo
Details: not given
With `CS(=O)(=O)c1ccc(-n2cccc2-c2ccc(F)cc2)cc1` [Example 8, 2-(4-Fluorophenyl)--1-[4-(methylsulfonyl)phenyl]-1H-pyrrole] the “ANALGESIA % Inhibition @ 30mg/kg body weight” value was 47%.

System: rat paw edema
Experiment: Rat Carrageenan Foot Pad Edema Test
Assay type: in vivo, rat (Male Sprague-Dawley)
Details: oral, 3 h after carrageenan injection
Procedure: The carrageenan foot edema test was performed with materials, reagents and procedures essentially as described by Winter, et al., (Proc. Soc. Exp. Biol. Med., 111, 544 (1962)). Male Sprague-Dawley rats were selected in each group so that the average body weight was as close as possible. Rats were fasted with free access to water for over sixteen hours prior to the test. The rats were dosed orally (1 mL) with compounds suspended in vehicle containing 0.5% methylcellulose and 0.025% surfactant, or with vehicle alone. One hour later a subplantar injection of 0.1 mL of 1% solution of carrageenan/sterile 0.9% saline was administered and the volume of the injected foot was measured with a displacement plethysmometer connected to a pressure transducer with a digital indicator. Three hours after the injection of the carrageenan, the volume of the foot was again measured. The average foot swelling in a group of drug-treated animals was compared with that of a group of placebo-treated animals and the percentage inhibition of edema was determined (Otterness and Bliven, Laboratory Models for Testing NSAIDs, in Non-steroidal Anti-Inflammatory Drugs, (J. Lombardino, ed. 1985)).
With `CS(=O)(=O)c1ccc(-n2cccc2-c2ccc(F)cc2)cc1` [Example 8, 2-(4-Fluorophenyl)--1-[4-(methylsulfonyl)phenyl]-1H-pyrrole] the “RAT PAW EDEMA % Inhibition @ 30mg/kg body weight” value was 56%.

Source: patent publication US5935990A, “Substituted pyrrolyl compounds for the treatment of inflammation” (G.D. Searle & Co., priority 1997, dated 1999)
